Laboratory results taken from patent US20240116985A1, “STAPLED PEPTIDES AND METHODS THEREOF” (priority 2020, published 2024).

Legend:
[1] = target: T1, beta-catenin/TCF4 engagement (Homo sapiens, UniProt P35222); assay: Nano-BRET target engagement assay (B-cat-Halo & TCF4-Luc in HEK293 cells); format: cell-based; conditions: absolute IC50; read-out: NanoBRET Abs IC50
T1 construct: expressed in transfected cells; host or cells: HEK293
T1 sequence (P35222 1-781): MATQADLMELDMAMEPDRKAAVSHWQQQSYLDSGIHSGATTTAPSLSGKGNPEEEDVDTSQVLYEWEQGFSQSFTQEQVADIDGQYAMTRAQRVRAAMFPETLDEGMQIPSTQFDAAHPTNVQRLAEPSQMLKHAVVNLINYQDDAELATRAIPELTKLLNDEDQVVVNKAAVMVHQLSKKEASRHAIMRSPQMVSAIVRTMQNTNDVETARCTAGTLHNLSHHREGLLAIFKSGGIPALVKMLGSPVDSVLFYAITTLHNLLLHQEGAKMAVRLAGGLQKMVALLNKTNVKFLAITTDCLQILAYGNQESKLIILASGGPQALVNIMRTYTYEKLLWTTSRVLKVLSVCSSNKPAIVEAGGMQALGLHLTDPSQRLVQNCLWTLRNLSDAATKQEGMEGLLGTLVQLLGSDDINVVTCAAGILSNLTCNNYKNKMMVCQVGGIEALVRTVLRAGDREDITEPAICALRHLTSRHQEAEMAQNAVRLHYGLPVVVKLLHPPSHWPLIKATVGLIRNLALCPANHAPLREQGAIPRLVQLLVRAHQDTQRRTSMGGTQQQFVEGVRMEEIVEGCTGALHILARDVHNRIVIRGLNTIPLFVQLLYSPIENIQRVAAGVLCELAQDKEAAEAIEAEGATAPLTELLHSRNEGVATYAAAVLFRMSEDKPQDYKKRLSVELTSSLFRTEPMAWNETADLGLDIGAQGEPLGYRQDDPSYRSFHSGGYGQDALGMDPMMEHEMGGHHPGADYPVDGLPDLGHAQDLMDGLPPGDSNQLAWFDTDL

[2] = system: TCF/LEF luciferase Reporter in DLD1 cells; assay: TCF reporter assay (DLD1 TCF/LEF luciferase reporter, Bright-Glo); format: cell-based; conditions: read-out: DLD1 4% Abs IC50; DLD1 reporter, 4%, absolute IC50
Summary of the method: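 DLD1 cells stably carrying a TCF/LEF luciferase reporter were plated at 5000 cells/well in RPMI + 4% FBS and treated overnight with a 1:2 compound dilution series. Bright-Glo luminescence read on day 3; viability by CellTiter-Glo. Absolute IC50 determined.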

[3] = target: T2, full-length beta-Catenin (Uniprot ID P35222) (Homo sapiens, UniProt P35222); assay: Fluorescence polarization IC50 (beta-catenin / 5FAM-TCF4 10-53 competition); format: binding; conditions: fluorescence polarization; read-out: beta-Catenin FP IC50
T2 construct: 10 nM full-length beta-Catenin (Uniprot ID P35222)
T2 sequence (P35222 1-781): T1 sequence (P35222 1-781)

Structure (SMILES): CCCC[C@H](NC(=O)[C@H](CC(C)C)NC(=O)[C@H](CCC(N)=O)NC(=O)[C@H](Cc1csc2ccccc12)NC(=O)[C@H](Cc1ccccc1C(F)(F)F)NC(=O)[C@]12CCN(C1)C(=O)OCCCC=CCCCC1(CCCC=CC[C@]3(CCCN3C(C)=O)C(=O)N[C@@H](CC(=O)O)C(=O)N[C@@H](CC(C)(C)C)C(=O)N1)C(=O)N[C@@H](CC(=O)O)C(=O)N[C@@H](Cc1cccc(C(=O)O)c1)C(=O)N[C@@H](C)C(=O)N[C@@H](C)C(=O)N[C@@H](Cc1ccccc1)C(=O)N[C@@H](CC(C)C)C(=O)N2)C(N)=O (stereo partly drawn) [I-2391, Ac-PL3-Asp-Npg-B5-Asp-3COOHF-Ala-Ala-Phe-Leu-PyrS2-2F3MeF-BztA-Gln-Leu-nLeu-NH2]
- IC50 [1]: 8.2 µM
- IC50 [2]: 0.7 µM
- IC50 [3]: 0.11 µM

Structure (SMILES): CC(=O)N1CCC[C@]12CC=CCCCC1(CCCC=CCCCOC(=O)N3CC[C@@](C(=O)N[C@@H](Cc4ccccc4C(F)(F)F)C(=O)N[C@@H](Cc4csc5ccccc45)C(=O)N[C@@H](CCC(N)=O)C(=O)N[C@@H](CC(C)C)C(=O)N[C@@H](CCCNC(=N)N)C(N)=O)(C3)NC(=O)[C@H](CC(C)C)NC(=O)[C@H](Cc3ccccc3)NC(=O)[C@H](C)NC(=O)[C@H](C)NC(=O)[C@H](Cc3cccc(C(=O)O)c3)NC(=O)[C@H](CC(=O)O)NC1=O)NC(=O)[C@H](CC(C)(C)C)NC(=O)[C@H](CC(=O)O)NC2=O (stereo partly drawn) [I-2393, Ac-PL3-Asp-Npg-B5-Asp-3COOHF-Ala-Ala-Phe-Leu-PyrS2-2F3MeF-BztA-Gln-Leu-Arg-NH2]
- IC50 [1]: > 20 µM
- IC50 [2]: 5.6 µM
- IC50 [3]: 0.061 µM

Structure (SMILES): CC(=O)N1CCC[C@]12CC=CCCCC1(CCCC=CCCCOC(=O)N3CC[C@@](C(=O)N[C@@H](Cc4ccccc4C(F)(F)F)C(=O)N[C@@H](Cc4csc5ccccc45)C(=O)N[C@@H](CCC(N)=O)C(=O)N[C@@H](CC(C)C)C(=O)N[C@H](C)C(N)=O)(C3)NC(=O)[C@H](CC(C)C)NC(=O)[C@H](Cc3ccccc3)NC(=O)[C@H](C)NC(=O)[C@H](C)NC(=O)[C@H](Cc3cccc(C(=O)O)c3)NC(=O)[C@H](CC(=O)O)NC1=O)NC(=O)[C@H](CC(C)(C)C)NC(=O)[C@H](CC(=O)O)NC2=O (stereo partly drawn) [I-2395, Ac-PL3-Asp-Npg-B5-Asp-3COOHF-Ala-Ala-Phe-Leu-PyrS2-2F3MeF-BztA-Gln-Leu-dAla-NH2]
- IC50 [1]: 5.5 µM
- IC50 [2]: 1.2 µM
- IC50 [3]: 0.028 µM

Structure (SMILES): CC(=O)N1CCC[C@]12CC=CCCCC1(CCCC=CCCCOC(=O)N3CC[C@@](C(=O)N[C@@H](Cc4ccccc4C(F)(F)F)C(=O)N[C@@H](Cc4csc5ccccc45)C(=O)N[C@@H](CCC(N)=O)C(=O)N[C@@H](CC(C)C)C(=O)N[C@H](CCC(N)=O)C(N)=O)(C3)NC(=O)[C@H](CC(C)C)NC(=O)[C@H](Cc3ccccc3)NC(=O)[C@H](C)NC(=O)[C@H](C)NC(=O)[C@H](Cc3cccc(C(=O)O)c3)NC(=O)[C@H](CC(=O)O)NC1=O)NC(=O)[C@H](CC(C)(C)C)NC(=O)[C@H](CC(=O)O)NC2=O (stereo partly drawn) [I-2398, Ac-PL3-Asp-Npg-B5-Asp-3COOHF-Ala-Ala-Phe-Leu-PyrS2-2F3MeF-BztA-Gln-Leu-dGln-NH2]
- IC50 [1]: 3.6 µM
- IC50 [2]: 1.3 µM
- IC50 [3]: 0.028 µM

Structure (SMILES): CC(=O)N1CCC[C@]12CC=CCCCC1(CCCC=CCCCOC(=O)N3CC[C@@](C(=O)N[C@@H](Cc4ccccc4C(F)(F)F)C(=O)N[C@@H](Cc4csc5ccccc45)C(=O)N[C@@H](CCC(N)=O)C(=O)N[C@@H](C)C(=O)N[C@@H](C)C(N)=O)(C3)NC(=O)[C@H](CC(C)C)NC(=O)[C@H](Cc3ccccc3)NC(=O)[C@H](C)NC(=O)[C@H](C)NC(=O)[C@H](Cc3cccc(C(=O)O)c3)NC(=O)[C@H](CC(=O)O)NC1=O)NC(=O)[C@H](CC(C)(C)C)NC(=O)[C@H](CC(=O)O)NC2=O (stereo partly drawn) [I-2399, Ac-PL3-Asp-Npg-B5-Asp-3COOHF-Ala-Ala-Phe-Leu-PyrS2-2F3MeF-BztA-Gln-Ala-Ala-NH2]
- IC50 [1]: 2.8 µM
- IC50 [2]: 2.2 µM
- IC50 [3]: 0.017 µM

Structure (SMILES): CC(=O)N1CCC[C@]12CC=CCCCC1(CCCC=CCCCOC(=O)N3CC[C@@](C(=O)N[C@@H](Cc4ccccc4C(F)(F)F)C(=O)N[C@@H](Cc4csc5ccccc45)C(=O)N[C@@H](CCC(N)=O)C(=O)N[C@@H](Cc4ccccc4)C(=O)N[C@@H](C)C(N)=O)(C3)NC(=O)[C@H](CC(C)C)NC(=O)[C@H](Cc3ccccc3)NC(=O)[C@H](C)NC(=O)[C@H](C)NC(=O)[C@H](Cc3cccc(C(=O)O)c3)NC(=O)[C@H](CC(=O)O)NC1=O)NC(=O)[C@H](CC(C)(C)C)NC(=O)[C@H](CC(=O)O)NC2=O (stereo partly drawn) [I-2400, Ac-PL3-Asp-Npg-B5-Asp-3COOHF-Ala-Ala-Phe-Leu-PyrS2-2F3MeF-BztA-Gln-Phe-Ala-NH2]
- IC50 [1]: 2.5 µM
- IC50 [2]: 0.8 µM
- IC50 [3]: 0.142 µM

Structure (SMILES): CC(=O)N1CCC[C@]12CC=CCCCC1(CCCC=CCCCOC(=O)N3CC[C@@](C(=O)N[C@@H](Cc4ccccc4C(F)(F)F)C(=O)N[C@@H](Cc4csc5ccccc45)C(=O)N[C@@H](CCC(N)=O)C(=O)N[C@H](C(=O)N[C@@H](C)C(N)=O)C(C)C)(C3)NC(=O)[C@H](CC(C)C)NC(=O)[C@H](Cc3ccccc3)NC(=O)[C@H](C)NC(=O)[C@H](C)NC(=O)[C@H](Cc3cccc(C(=O)O)c3)NC(=O)[C@H](CC(=O)O)NC1=O)NC(=O)[C@H](CC(C)(C)C)NC(=O)[C@H](CC(=O)O)NC2=O (stereo partly drawn) [I-2401, Ac-PL3-Asp-Npg-B5-Asp-3COOHF-Ala-Ala-Phe-Leu-PyrS2-2F3MeF-BztA-Gln-Val-Ala-NH2]
- IC50 [1]: 4.4 µM
- IC50 [2]: 0.8 µM
- IC50 [3]: 0.037 µM

Structure (SMILES): CC(=O)N1CCC[C@]12CC=CCCCC1(CCCC=CCCCOC(=O)N3CC[C@@](C(=O)N[C@@H](Cc4ccsc4)C(=O)N[C@@H](Cc4csc5ccccc45)C(=O)N[C@H](C(N)=O)[C@@H](C)O)(C3)NC(=O)[C@H](CC(N)=O)NC(=O)[C@H](Cc3ccccc3)NC(=O)[C@H](C)NC(=O)C(C)(C)NC(=O)[C@H]([C@@H](C)O)NC(=O)[C@H](CC(N)=O)NC1=O)NC(=O)[C@H](CC(C)(C)C)NC(=O)[C@H](CC(=O)O)NC2=O (stereo partly drawn) [I-2416, Ac-PL3-Asp-Npg-B5-Asn-Thr-Aib-Ala-Phe-Asn-PyrS2-3Thi-BztA-Thr-NH2]
- IC50 [1]: > 20 µM
- IC50 [2]: > 20 µM
- IC50 [3]: 0.133 µM

Structure (SMILES): CC(=O)N1CCC[C@]12CC=CCCCC1(CCCC=CCCCOC(=O)N3CC[C@@](C(=O)N[C@@H](Cc4ccccc4)C(=O)N[C@@H](Cc4csc5ccccc45)C(=O)N[C@@H](CC(=O)N4CCOCC4)C(N)=O)(C3)NC(=O)[C@H](CC(C)C)NC(=O)[C@H](Cc3ccccc3)NC(=O)[C@H](C)NC(=O)[C@H](CCCCNC(C)C)NC(=O)[C@H](CCC(N)=O)NC(=O)[C@H](CC(=O)O)NC1=O)NC(=O)[C@H](CC1CCCCC1)NC(=O)[C@H](CC(N)=O)NC2=O (stereo partly drawn) [I-2426, Ac-PL3-Asn-Cha-B5-Asp-Gln-iPrLys-Ala-Phe-Leu-PyrS2-Phe-BztA-MorphAsn-NH2]
- IC50 [1]: > 20 µM
- IC50 [2]: > 20 µM
- IC50 [3]: 0.046 µM

Structure (SMILES): CC(=O)N1CCC[C@]12CC=CCCCC1(CCCC=CCCCOC(=O)N3CC[C@@](C(=O)N[C@@H](Cc4ccsc4)C(=O)N[C@@H](Cc4csc5ccccc45)C(=O)N[C@@H](CCC(N)=O)C(N)=O)(C3)NC(=O)[C@H](CC(C)C)NC(=O)[C@H](Cc3ccccc3)NC(=O)[C@H](C)NC(=O)[C@H](C)NC(=O)[C@H](Cn3cc(C4(C(=O)O)CC4)nn3)NC(=O)[C@H](CC(=O)O)NC1=O)NC(=O)[C@H](CC(C)(C)C)NC(=O)[C@H](CC(=O)O)NC2=O (stereo partly drawn) [I-2445, Ac-PL3-Asp-Npg-B5-Asp-[CCpCO2H]TriAzDap-Ala-Ala-Phe-Leu-PyrS2-3Thi-BztA-Gln-NH2]
- IC50 [1]: 17.1 µM
- IC50 [2]: 9.5 µM
- IC50 [3]: 0.005 µM

Structure (SMILES): CC(=O)N1CCC[C@]12CC=CCCCC1(CCCC=CCCCOC(=O)N3CC[C@@](C(=O)N[C@@H](Cc4ccsc4)C(=O)N[C@@H](Cc4csc5ccccc45)C(=O)N[C@@H](CCC(=O)N(C)C)C(=O)N[C@@H](C)C(N)=O)(C3)NC(=O)[C@H](CC(C)C)NC(=O)[C@H](Cc3ccccc3)NC(=O)[C@H](C)NC(=O)[C@H](C)NC(=O)[C@H](CN(CC(=O)O)CC(F)(F)F)NC(=O)[C@H](CC(=O)O)NC1=O)NC(=O)[C@H](CC(C)(C)C)NC(=O)[C@H](CC(=O)O)NC2=O (stereo partly drawn) [I-2467, Ac-PL3-Asp-Npg-B5-Asp-TfeGA-Ala-Ala-Phe-Leu-PyrS2-3Thi-BztA-Me2Gln-Ala-NH2]
- IC50 [1]: 2.5 µM
- IC50 [2]: 1.4 µM
- IC50 [3]: 0.01 µM
